Tests used:
MC38 tumors = experiment: MC38 tumor growth after local radiation in mice; format: in vivo, mouse; conditions: 20 Gy, 10 μg intratumorally on day 2 and 6 after radiation, FIG. 21A, 21B
Procedure: (§1) 1×10^6 MC38 tumor cells were subcutaneously injected into the flank of mice. Tumor volumes were measured along three orthogonal axes (a, b, and c) and calculated as tumor volume=abc/2. Tumors were allowed to grow for 9-10 days and treated by local radiation (Deng et al., 2014). Briefly, the body was protected with a lead cover and the tumor was exposed, allowing local radiation. Tumors were irradiated using RS-2000 Biological Irradiator (RAD SOURCE) at the dose of 20 Gy with 160 kV and 25 mA. For type I IFN blockade experiments, 200 μg anti-IFAR1 mAb was intratumorally injected on day 0 and 2 after radiation. For HMGB-1 blockade experiments, 200 μg anti-HMGB-1 mAb (clone 3B1, generated by inventors) was administered i.p. on day 0 and 3 after radiation. For CD8^+ T cell depletion experiments, […] anti-CD8 mAb (Clone 2.43, BioXCell) was delivered 5 times by i.p. injection every three days starting one day before radiation. For exogenous IFN-β treatment experiments, 1×10^10 viral particles of Ad-IFN-β (Burnette, B., et al., The Efficacy of Radiotherapy Relies upon Induction of Type I Interferon-Dependent Innate and Adaptive Immunity, Cancer Res Apr. 1, 2011 71; 2488; (doi: 10.1158/0008-5472.CAN-10-2820)) were intratumorally administered on day 2 after radiation. Ad-null was used as negative control. […]

[1] = test system: tumor-specific CD8+ T cells; experiment: ELISPOT of tumor-specific IFN-γ-secreting CD8+ T cells from tumor draining lymph nodes after radiation; format: in vivo, mouse
Procedure: as §1

BMDCs = experiment: BMDC cross-priming of 2C CD8+ T cells after stimulation with irradiated MC38-SIY tumor cells (IFN-γ ELISPOT); format: cell-based, mouse
Procedure: Single-cell suspensions of bone marrow cells were obtained from C57BL/6J, STING^−/− and IRF3^−/− mice. Bone marrow from cGAS^−/− mice was kindly provided by Dr. Zhijian J. Chen of University of Texas Southwestern Medical Center, Dallas. The cells were placed in 10 cm petri dish and cultured in RPMI-1640 medium containing 10% fetal bovine serum (DENVILLE), supplemented with 20 ng/ml GM-CSF. Fresh media with GM-CSF was added into culture on day 3. BMDCs (bone marrow-derived dendritic cells) were harvest for stimulation assay on day 7. 8×10^6 MC38-SIY^hi cells were plated into 10 cm cell culture dishes overnight, and then pretreated with 40 Gy and incubated for 5 hours. BMDCs were added and co-cultured with MC38-SIY^hi cells at the ratio of 1:1 in the presence of fresh GM-CSF for additional 8 hours. Subsequently purified CD11c cells with EasySep™ Mouse CD11c Positive Selection Kit II (STEMCELL) were incubated with isolated CD8^+ T cells from naive 2 C mice for three days. For the bypassing assay, 10 ng/ml murine IFN-β was added in the co-culture of BMDCs and tumor cells, or 100 μg/ml DMXAA was added into isolated CD11c^+ cells with additional 3 h incubation. For IFN-β detection, BMDCs were co-cultured with tumor cells at the ratio of 1:1 for additional 8 hours, and 1×10^6 cells/ml purified CD11c^+ cells were seed into 96-well plates for 48 hours.
For bone-marrow CD11c^+ cells functional assay, 2×10^4 purified CD11c^+ cells with were incubated with isolated CD8^+ T cells from naive 2 C mice with EasySep™ Mouse CD8a Positive Selection Kit (STEMCELL) for three days at the ratio of 1:10. For tumor-specific CD8^+ T cells functional assay, eight days after radiation, tumor DLNs were removed and CD8^+ T cells were purified. MC38 tumor cells were exposed to 20 ng/ml murine IFN-γ for 24 hr prior to plating with purified CD8^+ T. 2×10^5 CD8^+ T cells were incubated with MC38 at the ratio of 10:1 for 48 hours. 96-well HTS-IP plate (Millipore) was pre-coated with 2.5 μg/ml anti-IFN-γ antibody (clone R4-6A2, BD Pharmingen) overnight at 4° C. […]

IFNβ promoter = IFNβ promoter dual-luciferase reporter assay (IFNβ-Luc / pRL-SV40) in HEK293 cells; format: cell-based, human; conditions: versus shNT, FIG. 6A
Excerpt: To measure IFNβ promoter activity, HEK293 cells were transiently co-transfected using Fugene (Roche) with pGL3-Ifnβ-Luc (Lin R, Genin P, Mamane Y, & Hiscott J (2000) Selective DNA binding and association with the CREB binding protein coactivator contribute to differential activation of alpha/beta interferon genes by interferon regulatory factors 3 and 7. Molecular and cellular biology 20(17):6342-6353) and an expression plasmid carrying the Renilla luciferase gene driven by the SV40 promoter (Promega). […] The following day, cells were irradiated at indicated dose and collected at indicated time in passive lysis buffer (Promega). Firefly and Renilla luciferase activities were measured using a dual-luciferase assay system (Promega). For siRNAs experiments, siRNA against LGP2 (see above) or non-targeting (Dharmacon) were transfected with RNAimax 24 h prior to transfection of luciferase/Renilla plasmids. Mean luciferase values were normalized and quantified from duplicate runs for each of at least three separate experiments.
We next assessed the role of LGP2 in regulating the IR-induced IFNβ response. HEK293 cells were transduced with lentiviral shRNA to stably reduce the levels of LGP2 or control non-targeting (shNT). Stably transduced cells were co-transfected with IFNβ-Luc and pRL-SV40, mock-treated or exposed to 6 or 12 Gy and collected 72 hrs after IR.

Nc1nc2c(ncn2[C@@H]2O[C@@H]3COP(=O)(O)O[C@H]4[C@@H](O)[C@H](n5cnc6c(N)ncnc65)O[C@@H]4COP(=O)(O)O[C@@H]2[C@@H]3O)c(=O)[nH]1 [2′3′-cGAMP, cyclic [G(2′,5′)pA(3′,5′)p]]
synergy with radiation on tumor burden (MC38 tumors; STING−/− mice): abrogated | tumor burden, combination with radiation (MC38 tumors; WT mice, versus either treatment alone): effectively reduce tumor burden | antitumor CD8+ T cell response induced by the combination with radiation ([1]; STING−/− host, FIG. 21D): dampened | number of tumor-specific IFN-γ-producing CD8+ T cells in DLNs, combination with radiation ([1]; WT mice, 10 μg intratumorally on day 2 after 20 Gy, DLNs day 8, versus radiation or 2′3′-cGAMP alone, FIG. 21C): significantly increased

Cc1ccc2c(=O)c3cccc(CC(=O)O)c3oc2c1C [DMXAA]
function of STING−/− BMDCs (cross-priming of CD8+ T cells) (BMDCs; STING−/− BMDCs stimulated with irradiated tumor cells, 10 ng/ml IFN-β or 100 μg/ml DMXAA, FIG. 18C): fails to rescue | function of cGAS−/− BMDCs (cross-priming of CD8+ T cells) (BMDCs; cGAS−/− BMDCs stimulated with irradiated tumor cells, 10 ng/ml IFN-β or 100 μg/ml DMXAA, FIG. 19D): restored

LGP2 shRNA: lentiviral pLKO.1 shRNA against LGP2, SEQ ID NO:3 ATTCTTGCGGTCATCGAACAG, Thermo Scientific
IR-induced IFNβ reporter activity (IFNβ promoter; HEK293, 6 or 12 Gy, 72 hrs after IR): greatly increased | IFNβ reporter activity (IFNβ promoter; HEK293, mock-treated): significant increase

siRNA-cGAS: Mission siRNA against murine cGAS, 5′-GAGGAAAUCCGCUGAGUCAdTdT-3′ (SEQ ID NO:8), Sigma (GAGGAAAUCCGCUGAGUCADTDT; dTdT 3' overhang, further chemistry not given here)
function of DCs (cross-priming of CD8+ T cells) (BMDCs; BMDCs transfected with 50 nM siRNA, versus non-target control, stimulated with irradiated tumor cells, FIG. 19B): greatly diminished
